Patent publication US12077503B2, “Substituted cyclic amides and their use as herbicides” (FMC CORPORATION, priority 2015, dated 2024)

What was measured:
Format in all cases: in vivo
[1] = test system: Kochia (Kochia scoparia); assay: Test A preemergence
Outline: (§1)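 In a loam soil and sand blend, planted seeds got a preemergence directed soil spray, and young plants at the one- to two-leaf stage, 2–10 cm high, got a postemergence application; ~10 d greenhouse hold; injury rated visually, 0 = none, 100 = complete control.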

[2] = test system: barnyardgrass (Echinochloa crus-galli); assay: Test A preemergence
Outline: as §1

[3] = test system: giant foxtail (Setaria faberii); assay: Test A preemergence
Outline: as §1

[4] = test system: pigweed (Amaranthus retroflexus); assay: Test A preemergence
[5] = test system: ragweed (common ragweed, Ambrosia elatior); assay: Test A preemergence
Outline: as §1

[6] = test system: ryegrass, Italian (Italian ryegrass, Lolium multiflorum); assay: Test A preemergence
Outline: as §1

[7] = test system: Galium (catchweed bedstraw, Galium aparine); assay: Test A postemergence; conditions: postemergence, 0 to 100 scale (0 no effect, 100 complete control)
Outline: as §1

[8] = test system: Kochia (Kochia scoparia); assay: Test A postemergence; conditions: postemergence, 0 to 100 scale (0 no effect, 100 complete control)
Outline: as §1

[9] = test system: barnyardgrass (Echinochloa crus-galli); assay: Test A postemergence; conditions: postemergence, 0 to 100 scale (0 no effect, 100 complete control)
Outline: as §1

[10] = test system: blackgrass (Alopecurus myosuroides); assay: Test A postemergence; conditions: postemergence, 0 to 100 scale (0 no effect, 100 complete control)
Outline: as §1

[11] = test system: corn (Zea mays); assay: Test A postemergence; conditions: postemergence, 0 to 100 scale (0 no effect, 100 complete control)
Outline: as §1

[12] = test system: giant foxtail (Setaria faberii); assay: Test A postemergence; conditions: postemergence, 0 to 100 scale (0 no effect, 100 complete control)
Outline: as §1

[13] = test system: pigweed (Amaranthus retroflexus); assay: Test A postemergence; conditions: postemergence, 0 to 100 scale (0 no effect, 100 complete control)
Outline: as §1

[14] = test system: ragweed (common ragweed, Ambrosia elatior); assay: Test A postemergence; conditions: postemergence, 0 to 100 scale (0 no effect, 100 complete control)
Outline: as §1

[15] = test system: ryegrass, Italian (Italian ryegrass, Lolium multiflorum); assay: Test A postemergence; conditions: postemergence, 0 to 100 scale (0 no effect, 100 complete control)
Outline: as §1

[16] = test system: wheat (Triticum aestivum); assay: Test A postemergence; conditions: postemergence, 0 to 100 scale (0 no effect, 100 complete control)
Outline: as §1

[17] = test system: barnyardgrass (Echinochloa crus-galli); assay: Test B flooded paddy test; conditions: Flood, 250 g ai/ha; 0 to 100 scale where 0 is no effect and 100 is complete control; 13 to 15 d
Outline: (§2)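 Greenhouse paddy pots with 2-leaf stage plants received compound by direct addition to floodwater 3 cm deep, kept at that level. Scored visually at 13–15 d versus controls (0 no effect; 100 complete control).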

[18] = test system: ducksalad (Heteranthera limosa); assay: Test B flooded paddy test; conditions: Flood, 250 g ai/ha; 0 to 100 scale where 0 is no effect and 100 is complete control; 13 to 15 d
Outline: as §2

[19] = test system: rice (Oryra sativa); assay: Test B flooded paddy test; conditions: Flood, 250 g ai/ha; 0 to 100 scale where 0 is no effect and 100 is complete control; 13 to 15 d
Outline: as §2

[20] = test system: sedge, umbrella (small-flower umbrella sedge, Cyperus difformis); assay: Test B flooded paddy test; conditions: Flood, 250 g ai/ha; 0 to 100 scale where 0 is no effect and 100 is complete control; 13 to 15 d
Outline: as §2

[21] = 125 g ai/ha, Preemergence, visual injury after approximately 10 d, 0 to 100 scale where 0 is no effect and 100 is complete control
[22] = 500 g ai/ha, preemergence, 0 to 100 scale, 0 = no effect, 100 = complete control
[23] = 125 g ai/ha, visual rating after approx. 10 d
[24] = 500 g ai/ha, visual injury, approx. 10 d

Cc1ccc(C2CN(C)C(=O)C2C(=O)Nc2ccccc2S(C)(=O)=O)cc1 (stereo not drawn) [Compound 663]
0: Plant response rating, Pigweed [13, 23] | Plant response rating, Rice [19] | Plant response rating, Sedge, Umbrella [20]
70: Plant response rating, Kochia [1, 21] | Plant response rating, Pigweed [4, 22] | Plant response rating, Ragweed [5, 22] | Plant response rating, Blackgrass [10, 24] | Plant response rating, Ryegrass, Italian [15, 24] | Plant response rating, Wheat [16, 24] | Plant response rating, Barnyardgrass [17]
20: Plant response rating, Kochia [8, 23] | Plant response rating, Pigweed [13, 24]
50: Plant response rating, Galium [7, 23] | Plant response rating, Wheat [16, 23]
30: Plant response rating, Pigweed [4, 21] | Plant response rating, Ragweed [5, 21] | Plant response rating, Ryegrass, Italian [6, 21] | Plant response rating, Corn [11, 23] | Plant response rating, Ragweed [14, 23]
98: Plant response rating, Ducksalad [18]
40: Plant response rating, Ragweed [14, 24] | Plant response rating, Ryegrass, Italian [15, 23]
90: Plant response rating, Barnyardgrass [2, 21] | Plant response rating, Foxtail, Giant [3, 21] | Plant response rating, Ryegrass, Italian [6, 22] | Plant response rating, Barnyardgrass [9, 23] | Plant response rating, Barnyardgrass [9, 24] | Plant response rating, Foxtail, Giant [12, 23] | Plant response rating, Foxtail, Giant [12, 24]
60: Plant response rating, Galium [7, 24] | Plant response rating, Kochia [8, 24] | Plant response rating, Blackgrass [10, 23]
100: Plant response rating, Barnyardgrass [2, 22] | Plant response rating, Foxtail, Giant [3, 22]
80: Plant response rating, Kochia [1, 22] | Plant response rating, Corn [11, 24]
